Data taken from patent publication EP0975351B1, “TREATMENT OF MULTIPLE SCLEROSIS THROUGH INGESTION OF COPOLYMER-1” (YEDA RESEARCH AND DEVELOPMENT CO. LTD., priority 1997, dated 1998).

Key:
[1] = test system: spleen cell cultures derived from mice; test: Cytokine secretion assay of spleen cells from fed mice (ELISA); assay type: cell-based; conditions: versus PBS fed control
Experimental: Induction and Assessment of EAE - Mice were injected with 200 µg GPBP emulsified in an equal volume of complete Freund's adjuvant (CFA) containing 4 mg/ml mycobacterium tuberculosis (H37Ra) (Difco Lab, Detroit, Mich.). The emulsion at a total volume of 0.1 ml was injected into all four footpads. Immediately after and 24 hours later, pertussis toxin (250ng/mouse) (Sigma) was injected intravenously.
Induction of Oral Tolerance - Mice were fed with 250 µg GPBP or glatiramer acetate dissolved in phosphate buffered saline (PBS) on days -7, -5, -3, 0, 2, 4 and 6 by gastric intubation with an 18-gauge stainless steel feeding needle (Thomas). EAE was induced on day 0.
Cytokine Secretion Assay - Spleens were removed 10-11 days after EAE induction and cells of 3 mice from each group were pooled. Cells (5x10^6/ml) were cultured in duplicates in 24 well plate in RPMI 1640 supplemented with 10% FCS (Fetal Calf Serum) in the presence or absence of antigen (GPBP 100 Fg/ml). Supematants were harvested after 24-40 hr of culture. Quantitative ELISA for IL-2, IFN-γ, IL-4, IL-6 and IL-10 were performed using paired mAbs specific for the corresponding cytokines (Pharmingen, La Jolla, CA) according to the manufacturer's instructions.

CSF WBCs = test: Flow cytometry of cerebral spinal fluid (CSF) cells; assay type: in vivo, Rhesus Monkeys
Experimental: 3 Rhesus monkeys were treated as follows: One monkey served as control and was fed with placebo capsules (containing 5mg glucose only). The second and third monkeys were fed with glatiramer acetate containing capsules at a dose of 1mg/feeding and 20mg/feeding, respectively. Animals were fed every other day for a total of 10 feedings: 5 times prior to disease induction (immunization on day 0) and then 5 times after immunization.
Disease was induced on day 0 by an intradermal injection of 8mg bovine - MBP and 3 mg H37Ra M. tuberculosis in FCA into the hind footpads, total injected volume between 0.1 and 0.15 ml per footpad. The animals were followed for clinical manifestations of EAE, a variety of serum and CSF immunological markers and spinal cord and cranial MRI's.
The Epics C flow cytometer was used to analyze both peripheral blood lymphocytes (PBL) and cerebral spinal fluid (CSF) collected from each monkey. The red blood cells were lysed and the remaining white blood cells (WBCs) were washed and stained using standard methods with appropriate reagents. Tables 3 and 4 below show the data from staining PBL and CSF WBCs from the three animals in this Example.

TGF-beta = test: Reaction of MBP-bound plasma material with anti-TGF-beta antibody; assay type: in vivo, Rhesus Monkeys; conditions: plasma material bound to MBP
Excerpt: Recombinant human TGF-beta reacted with the anti-TGF-beta, but not 3C9 antibody. Table 5: Assay for MBP-specific T suppressor Inducer factora

[2] = test system: experimental allergic encephalomyelitis (EAE); conditions: EAE induced by MSCH, MBP, PLP, MOG in a variety of species; cited from earlier work
[3] = animal 18498, 20mg/feeding, day +27

Substance: glatiramer acetate
- IFN-γ produced in response to GPBP stimulation [1]: lower than in control groups
- IL-2 produced in response to GPBP stimulation [1]: lower than in control groups
- Cells µl (CSF WBCs; animal 18497, 1mg/feeding, day 0): few cells
- Cells µl (CSF WBCs; animal 18498, 20mg/feeding, day 0): too few cells
- CD4+ (CSF WBCs; [3]): 47
- CD4+ CD45RA+ (CSF WBCs; [3]): 8
- Cells µl (CSF WBCs; [3]): 29.7
- Cells µl (CSF WBCs; animal 18498, 20mg/feeding, day +34): too few cells
- anti-TGF-beta (TGF-beta; animal 18497, 1mg/feeding then 20mg capsules after day 33, day +41): 0.85 OD405nm
- anti-TGF-beta (TGF-beta; animal 18497, 1mg/feeding, day +6): none
- anti-TGF-beta (TGF-beta; animal 18497, 1mg/feeding, day +13): 0.71 OD405nm
- anti-TGF-beta (TGF-beta; animal 18497, 1mg/feeding, day +27): 0.65 OD405nm
- anti-TGF-beta (TGF-beta; animal 18498, 20mg/feeding, day +6): none
- anti-TGF-beta (TGF-beta; animal 18498, 20mg/feeding, day +13): 0.35 OD405nm
- anti-TGF-beta (TGF-beta; [3]): 0.47 OD405nm
- anti-TGF-beta (TGF-beta; animal 18498, 20mg/feeding, day +41): 0.45 OD405nm
- suppression of EAE [2]: suppress experimental allergic encephalomyelitis (EAE)
